In series [1] the test system is HEPG2 cells. Briefly: Cytotoxicity assay (MTT reduction), HEPG2 cells. Type of series: cell-based, human. The settings on record: CC50 HEPG2 / EC50 3D7. As for the experimental part:
(§1) The cytotoxicity was evaluated using two different lineages of mammalian cells: fibroblast-like cell lines derived from monkey kidney tissue (COS7 cells) and human hepatoma cell line (HEPG2). The cells were grown in 75 cm^2 flasks containing DMEM medium supplemented with 10% fetal bovine serum and 0.05 mg/mL gentamicin under a 5% CO2 atmosphere at 37°C. After harvest of cells, 100 μL aliquots were distributed in 96-well plates (1 x 10^4 cells per well) and incubated until adhesion (~12 h). The compounds at various concentrations (100−0.048 μM) were placed in the wells in duplicate and incubated for 72 h. The cell viability analysis were done by the MMT reduction method (3-[4,5-dimethyl-thiazol-2-yl]-2,5-diphenyltetrazolium […]), after the incubation period (Mosmann, [1983]). The optical density was determined at 570 nm (CLARIOstar, Labtech BMG) and the 50% cytotoxicity concentrations (CC50) were expressed as the percent viability relative to the control (untreated cells). The selectivity index of the compounds was determined through the ratio of the CC50 of both cytotoxicity results (COS7 and HEPG2 cells) and EC50 3D7, separately. Experiments were performed at least three times.

Series [2] is described as follows: Cytotoxicity assay (MTT reduction), HEPG2 cells. In kind it is cell-based, human. The settings on record: human, HEPG2 cells (human hepatoma); HEPG2 cells, 72 h, mean ± SD. As for the experimental part:
as §1
(Formazan colour is commonly taken as a measure of viable cells.)

The subject of series [3] is P. falciparum 3D7 (sensitive) strain, asexual blood stage. Briefly: Plasmodium growth inhibition by SYBR Green I, 3D7 strain. Type of series: cell-based. As for the experimental part:
(§2) Parasite cultures (3D7 and Dd2 strains) were maintained in O^+ human erythrocytes in RPMI 1640 medium supplemented with 0.05 mg/mL gentamycin, 38.4 mM HEPES, 0.2% sodium bicarbonate, and 10% O^+ human serum as described before (Trager and Jensen, [1976]). To achieve a synchronic culture in the ring stage, two consecutive treatments at 48 h intervals with a 5% solution of D-sorbitol were done (Lambros and Vanderberg, [1979]).
(§3) Synchronized ring-stage (> 90%) infected erythrocytes were dispensed in duplicate into 96-well plates (0.5% parasitemia, 1% hematocrit) and incubated in dose response format with test compounds for 72 h. Chloroquine was used as an antimalarial control and uninfected erythrocytes as negative control. Then, in vitro susceptibility of parasite to tested drug was measured by SYBR Green (Hartwig et al., [2013]). Following incubation, the plates were frozen and thawed, and 100 μL of the culture were transferred to a new black 96-well plate containing 100 μL of lysis buffer (20 mM Tris, 5 mM EDTA, 0.008% wt/vol saponin, 0.08% vol/vol Triton X-100, and 0.4 μL/mL of SYBR Green). After 1 h, the fluorescence was measured at 490 nm excitation and 540 nm emission (CLARIOstar, Labtech BMG). […] The EC50 was calculated by plotting the Log doses vs. Inhibition (expressed as a percentage relative to the control) in Prism 6 (GraphPad Software Inc.). Each test was performed at least three independent experiments.

The test system of series [4] is P. falciparum Dd2 (multi-drug-resistant) strain, asexual blood stage. Briefly: Plasmodium growth inhibition by SYBR Green I, Dd2 strain. Conditions: read-out: EC50 Dd2. In kind it is cell-based. As for the experimental part:
as §2, §3

Series [5] relates to P. berghei Ookluc line ookinete formation. Briefly: Inhibition of P. berghei sexual stage progression (ookinete conversion, nLuc). In kind it is cell-based. Conditions: Plasmodium berghei, 24 h at 21°C, mean ± SD. As for the experimental part:
Balb/c mice were infected intraperitoneally with the P. berghei Ookluc line (Calit et al., [2018]). Four to five days after infection, the infected blood was collected by cardiac puncture and 4 μL were seeded to a volume of 80 μL of ookinete medium (Blagborough et al., [2013]), at 21°C, containing 10 μM of compounds or DMSO vehicle control. After 24h incubation at 21°C, the nLuc substrate (Nano-Glo, Promega) was added to each well 1:1 (v:v) and incubated for 5 min at 37°C. The luciferase activity was measured using a plate luminometer SpectraMax i3; Molecular Devices and the % of conversion inhibition were calculated relative to the luciferase activity in the control assays. This assay was approved by the Ethics Committee (protocol number 132/2014-CEUA) of the Institute of Biomedical Sciences—University of São Paulo.

The nature of series [6]: Cytotoxicity assay (MTT reduction), COS7 cells. Conditions: monkey, COS7 cells (fibroblast-like, monkey kidney); COS7 cells, 72 h, mean ± SD. In kind it is cell-based, monkey. As for the experimental part: as §1
In series [7] the test system is COS7 cells. Briefly: Cytotoxicity assay (MTT reduction), COS7 cells. In kind it is cell-based, monkey. Conditions: for SI* (selectivity index between CC50 COS7 and EC50 3D7 strain): CC50 COS7 / EC50 3D7; for selectivity indices: mammalian cells vs 3D7 (abstract). As for the experimental part: as §1
In series [8] the test system is P. falciparum CDPK1. Also on record: method as in ref Crowther et al., 2016; National Center for Biotechnology Information, 2016a. The settings on record: query of shape-based model, ref Crowther et al., 2016, National Center for Biotechnology Information, 2016a; cited from earlier work.
The test system of series [9] is P. falciparum PK6. Also on record: method as in ref Crowther et al., 2016; National Center for Biotechnology Information, 2016c. The settings on record: query of shape-based model, ref Crowther et al., 2016, National Center for Biotechnology Information, 2016c; cited from earlier work.
In series [10] the test system is P. falciparum CDPK4. Also on record: method as in ref Crowther et al., 2016; National Center for Biotechnology Information, 2016b. The settings on record: query of shape-based model, ref Crowther et al., 2016, National Center for Biotechnology Information, 2016b; cited from earlier work.
The mark [11] stands for this setting: 3D7 strain, 72 h, mean ± SD of three independent assays, read-out: EC50 3D7.
Where [12] appears, read: Dd2 strain, 72 h, mean ± SD of three independent assays.
Setting [13] is: 3D7, both sensitive and multi-drug resistant P. falciparum strains (abstract), read-out: EC50 (antiplasmodial activity).
[14] abbreviates: 3D7 / DD2, both 3D7 and Dd2 strains, summary bound, read-out: EC50 (3D7 and Dd2 strains).

This is an account of results in PMC6881481, “Integrative Multi-Kinase Approach for the Identification of Potent Antiplasmodial Hits” (Frontiers in Chemistry, 2019).

Where two headings read alike, the source gives them in different places.

Take `COc1ccc(Nc2nc(Nc3ccc([N+](=O)[O-])cc3)nc(OC)n2)cc1` [LabMol-169]: the “SI** (selectivity index between CC50 HEPG2 and EC50 3D7 strain)” value in series [1] stood at 2.27. The values for the CC50 at 72 h in series [2] and in series [6] were 20000 ± 2260 nM and 44600 ± 3730 nM, respectively. Besides, the EC50 in series [3] (setting [11]) is 8770 ± 2200 nM; in series [4] (setting [12]) it was 3400 ± 1680 nM. This compound returned an inhibition at 10 µM in series [5] of 8.58 ± 7.62%. In series [7], the “SI* (selectivity index between CC50 COS7 and EC50 3D7 strain)” value turned out to be 5.09.

On to `CC(O)c1cccc(Nc2nc(NCc3ccco3)c3ccccc3n2)c1` (stereo not drawn) [LabMol-172], for which the “SI** (selectivity index between CC50 HEPG2 and EC50 3D7 strain)” value in series [1] is 23.74. The CC50 at 72 h in [2] worked out at 10200 ± 5530 nM; in series [6], 12100 ± 1440 nM. Further, the EC50 in [3] (setting [13]) is no more than 700 nM; in series [3] (setting [14]) it was less than 1000 nM; in [3] (setting [11]), 430 ± 80 nM; in series [4] (setting [12]) it was 480 ± 170 nM. Further, in [5], at 10 µM the inhibition was 8.59 ± 13%. In addition, the “SI* (selectivity index between CC50 COS7 and EC50 3D7 strain)” value in series [7] amounted to 28.16. This compound came in with a selectivity indices in [7] greater than 15 folds.

As for `Cc1cc(NCCCN2CCN(C)CC2)nc(-c2ccccc2O)n1` [LabMol-174], in series [3] (setting [11]), the EC50 is greater than 5000 nM. Besides, the inhibition at 10 µM in series [5] worked out at 21.4 ± 36.7%.

`O=C(NCCO)c1cccc(Nc2nc(-c3ccccc3)c3cc(Cl)ccc3n2)c1` [LabMol-175]: the EC50 in [3] (setting [11]) is greater than 5000 nM. In addition, testing at 10 µM in series [5] gave an inhibition of 12.9 ± 22.3%.

`CC(Nc1nc(N2CCNCC2)nc2ccccc12)c1ccccc1` (stereo not drawn) [LabMol-176]: in series [1], the “SI** (selectivity index between CC50 HEPG2 and EC50 3D7 strain)” value came out at 4.90. The CC50 at 72 h in [2] worked out at 5630 ± 1510 nM; in series [6] it was 34900 ± 4060 nM. The results for the EC50 in [3] (setting [11]) and in series [4] (setting [12]) were 1150 ± 260 nM and 1710 ± 400 nM, respectively. For the same compound, the inhibition at 10 µM in series [5] amounted to 20.5 ± 19.4%. The “SI* (selectivity index between CC50 COS7 and EC50 3D7 strain)” value in series [7] came out at 30.33.

`CC(C)(CN)c1nc(-c2ccc(Cl)c(O)c2)c(-c2ccnc(N)n2)[nH]1` [SID 307078537]: the IC50 in [8] is 7 nM.

Take `c1ccc2c(NCC3CCCO3)nc(Nc3ccc4c(c3)OCO4)nc2c1` (stereo not drawn) [LabMol-181]: in [1], the “SI** (selectivity index between CC50 HEPG2 and EC50 3D7 strain)” value is on record as 15.72. Also, the CC50 at 72 h turned out to be 6130 ± 2050 nM in series [2] and 18300 ± 1920 nM in [6]. The EC50 is no more than 700 nM in series [3] (setting [13]), less than 1000 nM in series [3] (setting [14]), 390 ± 60 nM in [3] (setting [11]) and 400 ± 100 nM in series [4] (setting [12]). Further, the inhibition at 10 µM in series [5] was 51.8 ± 23.2%. In addition, the “SI* (selectivity index between CC50 COS7 and EC50 3D7 strain)” value in [7] was 46.90. In [7], the selectivity indices is on record as greater than 15 folds.

On to `COc1ccc(Nc2nc(C)c(N)c(Nc3ccc(OC)cc3)n2)cc1` [LabMol-170], for which the “SI** (selectivity index between CC50 HEPG2 and EC50 3D7 strain)” value in series [1] is reported as 4.76. Further, the CC50 at 72 h was determined as 5430 ± 2390 nM in series [2] and 7590 ± 4090 nM in series [6]. Further, the values for the EC50 in series [3] (setting [11]) and in series [4] (setting [12]) were 1140 ± 200 nM and 2020 ± 360 nM, respectively. This compound showed an inhibition at 10 µM in series [5] of 11.2 ± 19.5%. In addition, the “SI* (selectivity index between CC50 COS7 and EC50 3D7 strain)” value in [7] is given as 6.66.

For the compound `CN1CCN(CCC2CCCCN2Cc2ccnc3ccccc23)CC1` (stereo not drawn) [LabMol-173], the EC50 in [3] (setting [11]) is greater than 5000 nM. The same compound displayed an inhibition at 10 µM in series [5] of 0%.

On to `CCn1c(-c2nonc2N)nc2c(-c3cccc(NC(=O)Nc4cccc(C(F)(F)F)c4)c3)ncc(OCCCN)c21` [SID 307073749], for which, in [8], the IC50 is 15 nM.

On to `Cc1ccc(-c2nc(NCc3cnc(C)cn3)ncc2-c2ccc(N)nc2)cc1` [LabMol-177], for which, in [3] (setting [11]), the EC50 was greater than 5000 nM. In series [5], this compound showed an inhibition at 10 µM of 8.76 ± 15.2%.

On to `CCN(CC)CCCC(C)Nc1ccnc2cc(Cl)ccc12` (stereo not drawn) [Chloroquine, reference compound], for which the EC50 in series [3] (3D7, 72 h, read-out: EC50 3D7) came to 20 ± 10 nM; in [4] (DD2, 72 h), 150 ± 40 nM.

Take `CNC(=O)c1ccccc1Nc1nc(Nc2ccc(N3CCOCC3)cc2)ncc1Cl` [SID 307071719]: the IC50 in series [9] was 42 nM.

Consider `Cc1[nH]c(/C=C2\C(=O)Nc3ccc(S(=O)(=O)Cc4c(Cl)cccc4Cl)cc32)c(C)c1C(=O)N1CCC[C@@H]1CN1CCCC1` [SID 307068815], for which the concentration for half-maximal inhibition (IC50) in [10] was 21 nM.

As to `O=C(NCCCN1CCCCC1)c1ccc(Nc2nccc(Nc3ccc(Oc4ccccc4)cc3)n2)cc1` [SID 307076176], in series [8], the IC50 was 94 nM.

On to `CC(O)c1cccc(Nc2nc(NCCO)c3ccccc3n2)c1` (stereo not drawn) [LabMol-171], for which the “SI** (selectivity index between CC50 HEPG2 and EC50 3D7 strain)” value in series [1] came to 55.17. For the same compound, the CC50 at 72 h was 19300 ± 3690 nM in [2] and 48400 ± 14000 nM in series [6]. Moreover, the EC50 was no more than 700 nM in [3] (setting [13]), less than 1000 nM in series [3] (setting [14]), 350 ± 80 nM in series [3] (setting [11]) and 700 ± 410 nM in series [4] (setting [12]). Moreover, the inhibition at 10 µM in [5] turned out to be 70 ± 22.2%. Moreover, the “SI* (selectivity index between CC50 COS7 and EC50 3D7 strain)” value in series [7] is on record as 138.26. The compound also yielded a selectivity indices in series [7] greater than 15 folds.

One may read the CC50 as the concentration at which the toxic effect on the cells reaches its halfway point. For orientation: EC50 means the midpoint of the concentration-response curve. As a reminder, the inhibition is the percentage by which the read-out fell short of the control. As a reminder, the IC50 is the concentration that inhibits the measured activity by half.
